Molecules are shown by their SMILES. Where a name gives a salt, the structure may show the parent alone.

Experiment [1] deals with T1, recombinant human adrenergic beta 1 receptors (Homo sapiens, UniProt P08588).
T1 construct: purchased Euroscreen
In words: Adrenergic β1 selectivity binding assay ([125I]-Iodocyanopindolol). The following applies: inhibition of [125I]-Iodocyanopindolol (0.036 nM) binding; read-out: β1 bind p IC50 (converted). In short, it runs like this:
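Displacement of [^125I]-Iodocyanopindolol (0.036 nM final) from human β1 receptor membranes, 2 hours at room temperature, pH 7.4 HEPES/EDTA/NaCl buffer. After filtration, scintillation counting; NSB set with 10 μM propranolol and subtracted. Four-parameter logistic fitting gave pIC50.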

For experiment [2], the target named is T2, recombinant human Dopamine Subtype D2s receptors (Homo sapiens, UniProt P14416).
T2 construct: purchased Perkin Elmer
In words: Dopamine D2 selectivity binding assay ([3H]-spiperone). The following applies: inhibition of [3H]-spiperone (0.16 nM) binding; read-out: D2 bind pIC50 (converted). In short, it runs like this:
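Displacement of [3H]-spiperone (0.16 nM final) from human D2s receptor membranes in pH 7.4 HEPES buffer over 2 h at room temperature, then filtration and scintillation counting. Specific binding taken as vehicle minus 10 μM haloperidol wells. Potency given as pIC50 from a four-parameter logistic curve.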

T2 sequence (P14416 1-414 isoform P14416-2): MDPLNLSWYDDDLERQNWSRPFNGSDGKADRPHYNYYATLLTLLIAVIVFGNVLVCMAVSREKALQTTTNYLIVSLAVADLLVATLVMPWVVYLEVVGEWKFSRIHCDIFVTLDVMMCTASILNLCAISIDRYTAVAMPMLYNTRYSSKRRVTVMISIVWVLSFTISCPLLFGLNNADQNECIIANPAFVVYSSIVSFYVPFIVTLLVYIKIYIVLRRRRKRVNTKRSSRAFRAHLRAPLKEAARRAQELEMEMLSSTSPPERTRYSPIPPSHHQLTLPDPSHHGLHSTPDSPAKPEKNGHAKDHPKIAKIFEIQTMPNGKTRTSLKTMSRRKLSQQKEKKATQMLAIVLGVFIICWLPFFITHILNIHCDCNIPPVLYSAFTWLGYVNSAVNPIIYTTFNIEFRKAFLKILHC
T1 sequence (P08588 whole entry): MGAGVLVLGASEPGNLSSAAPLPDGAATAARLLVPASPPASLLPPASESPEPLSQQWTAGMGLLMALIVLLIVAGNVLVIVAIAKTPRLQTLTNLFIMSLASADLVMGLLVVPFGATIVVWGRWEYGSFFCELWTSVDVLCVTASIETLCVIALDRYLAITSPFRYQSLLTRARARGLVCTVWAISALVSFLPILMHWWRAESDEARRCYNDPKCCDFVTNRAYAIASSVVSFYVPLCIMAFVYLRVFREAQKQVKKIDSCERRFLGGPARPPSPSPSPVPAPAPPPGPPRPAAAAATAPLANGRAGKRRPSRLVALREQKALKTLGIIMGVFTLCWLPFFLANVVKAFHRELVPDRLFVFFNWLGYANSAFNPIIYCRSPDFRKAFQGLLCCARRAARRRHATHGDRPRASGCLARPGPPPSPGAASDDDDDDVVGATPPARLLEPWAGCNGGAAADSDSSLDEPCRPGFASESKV

`O=C(CCNCCc1ccccc1)N(CCNCCc1ccc(O)c2[nH]c(=O)sc12)C1CCSCC1` [Example 62, N-(2-{[2-(4-Hydroxy-2-oxo-2,3-dihydro-1,3-benzothiazol-7-yl)ethyl]amino}ethyl)-N^3-(2-phenylethyl)-N^1-(tetrahydro-2H-thiopyran-4-yl)-β-alaninamide bis-trifluoroacetic acid salt]: the IC50 in experiment [1] and in experiment [2] was 398 nM throughout.
On to `CCCC(CCC)N(CCNCCc1ccc(O)c2[nH]c(=O)sc12)C(=O)CCNCCc1cccc(F)c1` [Example 63, N^3-[2-(3-Fluorophenyl)ethyl]-N^1-(2-{[2-(4-hydroxy-2-oxo-2,3-dihydro-1,3-benzothiazol-7-yl)ethyl]amino}ethyl)-N^1-(1-propylbutyl)-β-alaninamide bis-trifluoroacetic acid salt], for which the IC50 was 2510 nM in experiment [1] and 200 nM in experiment [2].
On to `CCCC(CCC)N(CCNCCc1ccc(O)c2[nH]c(=O)sc12)C(=O)CCNCCc1ccc(F)cc1` [Example 64, N^3-[2-(4-Fluorophenyl)ethyl]-N^1-(2-{[2-(4-hydroxy-2-oxo-2,3-dihydro-1,3-benzothiazol-7-yl)ethyl]amino}ethyl)-N^1-(1-propylbutyl)-β-alaninamide bis-trifluoroacetic acid salt], for which the figures for the IC50 in experiment [1] and in experiment [2] were 6310 nM and 200 nM, respectively.
Taken in the same sequence, the figures for `CC(C)(CO)CN(CCNCCc1ccc(O)c2[nH]c(=O)sc12)C(=O)CCNCCc1ccccc1Cl` [Example 65, N^3-[2-(2-Chlorophenyl)ethyl]-N^1-(3-hydroxy-2,2-dimethylpropyl)-N^1-(2-{[2-(4-hydroxy-2-oxo-2,3-dihydro-1,3-benzothiazol-7-yl)ethyl]amino}ethyl)-β-alaninamide bis-trifluoroacetic acid salt] were 1000 nM and 398 nM.
On the same counts, the results for `CC(C)(CO)CN(CCNCCc1ccc(O)c2[nH]c(=O)sc12)C(=O)CCNCCc1cccc(Cl)c1` [Example 66, N^3-[2-(3-Chlorophenyl)ethyl]-N^1-(3-hydroxy-2,2-dimethylpropyl)-N^1-(2-{[2-(4-hydroxy-2-oxo-2,3-dihydro-1,3-benzothiazol-7-yl)ethyl]amino}ethyl)-β-alaninamide bis-trifluoroacetic acid salt] are 1580 nM and 631 nM.
As to `CC(C)(CO)CN(CCNCCc1ccc(O)c2[nH]c(=O)sc12)C(=O)CCNCCc1cccc(Cl)c1Cl` [Example 67, N^3-[2-(2,3-Dichlorophenyl)ethyl]-N^1-(3-hydroxy-2,2-dimethylpropyl)-N^1-(2-{[2-(4-hydroxy-2-oxo-2,3-dihydro-1,3-benzothiazol-7-yl)ethyl]amino}ethyl)-β-alaninamide bis-trifluoroacetic acid salt], the IC50 in experiment [1] is 1000 nM; in experiment [2] it was 158 nM.
On to `COc1ccc(CCNCCC(=O)N(CCNCCc2ccc(O)c3[nH]c(=O)sc23)C2CCCCC2)cc1` [Example 68, N^1-Cyclohexyl-N^1-(2-{[2-(4-hydroxy-2-oxo-2,3-dihydro-1,3-benzothiazol-7-yl)ethyl]amino}ethyl)-N^3-[2-(4-methoxyphenyl)ethyl]-β-alaninamide bis-trifluoroacetic acid salt], for which the results for the IC50 in experiment [1] and in experiment [2] were 3980 nM and 50.1 nM, respectively.
In the case of `NS(=O)(=O)c1ccc(CCNCCC(=O)N(CCNCCc2ccc(O)c3[nH]c(=O)sc23)C2CCCCC2)cc1` [Example 69, N^3-{2-[4-(Aminosulfonyl)phenyl]ethyl}-N^1-cyclohexyl-N^1-(2-{[2-(4-hydroxy-2-oxo-2,3-dihydro-1,3-benzothiazol-7-yl)ethyl]amino}ethyl)-β-alaninamide bis-trifluoroacetic acid salt], the results for the IC50 in experiment [1] and in experiment [2] were 6310 nM and 100 nM, respectively.
Turning to `O=C(CCNCCc1cccc(O)c1)N(CCNCCc1ccc(O)c2[nH]c(=O)sc12)C1CCCCC1` [Example 71, N^1-Cyclohexyl-N^1-(2-{[2-(4-hydroxy-2-oxo-2,3-dihydro-1,3-benzothiazol-7-yl)ethyl]amino}ethyl)-N^3-[2-(3-hydroxyphenyl)ethyl]-β-alaninamide bis-trifluoroacetic acid salt], the IC50 in experiment [1] was 3980 nM; in experiment [2], 100 nM.
In the case of `O=C(CCNCCc1ccc(Cl)s1)N(CCNCCc1ccc(O)c2[nH]c(=O)sc12)C1CCCCC1` [Example 72, N^3-[2-(5-Chloro-2-thienyl)ethyl]-N^1-cyclohexyl-N^1-(2-{[2-(4-hydroxy-2-oxo-2,3-dihydro-1,3-benzothiazol-7-yl)ethyl]amino}ethyl)-β-alaninamide bis-trifluoroacetic acid salt], the IC50 was 3160 nM in experiment [1] and 126 nM in experiment [2].
On to `O=C(CCNCCc1ccc(F)c(F)c1)N(CCNCCc1ccc(O)c2[nH]c(=O)sc12)C1CCCCC1` [Example 73, N^1-Cyclohexyl-N^3-[2-(3,4-difluorophenyl)ethyl]-N^1-(2-{[2-(4-hydroxy-2-oxo-2,3-dihydro-1,3-benzothiazol-7-yl)ethyl]amino}ethyl)-β-alaninamide bis-trifluoroacetic acid salt], for which the IC50 was 7940 nM in experiment [1] and 200 nM in experiment [2].
For the compound `O=C(CCNC[C@@H](O)c1ccccc1)N(CCNCCc1ccc(O)c2[nH]c(=O)sc12)C1CCCCC1` [Example 74, N^1-Cyclohexyl-N^1-(2-{[2-(4-hydroxy-2-oxo-2,3-dihydro-1,3-benzothiazol-7-yl)ethyl]amino}ethyl)-N^3-[(2S)-2-hydroxy-2-phenylethyl]-β-alaninamide bis-trifluoroacetic acid salt], the IC50 in experiment [1] is 3160 nM; in experiment [2], 501 nM.
In the case of `O=C(CCNC[C@H](O)c1ccccc1)N(CCNCCc1ccc(O)c2[nH]c(=O)sc12)C1CCCCC1` [Example 75, N^1-Cyclohexyl-N^1-(2-{[2-(4-hydroxy-2-oxo-2,3-dihydro-1,3-benzothiazol-7-yl)ethyl]amino}ethyl)-N^3-[(2R)-2-hydroxy-2-phenylethyl]-β-alaninamide bis-trifluoroacetic acid salt], the IC50 was 631 nM in experiment [1] and 398 nM in experiment [2].
Consider `O=C(CCNCCc1ccc2c(c1)OCO2)N(CCNCCc1ccc(O)c2[nH]c(=O)sc12)C1CCCCC1` [Example 76, N^3-[2-(1,3-Benzodioxol-5-yl)ethyl]-N^1-cyclohexyl-N^1-(2-{[2-(4-hydroxy-2-oxo-2,3-dihydro-1,3-benzothiazol-7-yl)ethyl]amino}ethyl)-β-alaninamide bis-trifluoroacetic acid salt], for which the IC50 was 3980 nM in experiment [1] and 200 nM in experiment [2].
Take `O=C(CCNCCc1nc2ccccc2[nH]1)N(CCNCCc1ccc(O)c2[nH]c(=O)sc12)C1CCCCC1` [Example 77, N^3-[2-(1H-Benzimidazol-2-yl)ethyl]-N^1-cyclohexyl-N^1-(2-{[2-(4-hydroxy-2-oxo-2,3-dihydro-1,3-benzothiazol-7-yl)ethyl]amino}ethyl)-β-alaninamide tris-trifluoroacetic acid salt]: the figures for the IC50 in experiment [1] and in experiment [2] were 6310 nM and 158 nM, respectively.
On the same counts, the results for `O=C(CCNCCc1cc(F)cc(F)c1)N(CCNCCc1ccc(O)c2[nH]c(=O)sc12)C1CCCCC1` [Example 78, N^1-Cyclohexyl-N^3-[2-(3,5-difluorophenyl)ethyl]-N^1-(2-{[2-(4-hydroxy-2-oxo-2,3-dihydro-1,3-benzothiazol-7-yl)ethyl]amino}ethyl)-β-alaninamide bis-trifluoroacetic acid salt] are 3980 nM and 316 nM.
As to `O=C(CCNCCc1cc(F)ccc1F)N(CCNCCc1ccc(O)c2[nH]c(=O)sc12)C1CCCCC1` [Example 79, N^1-Cyclohexyl-N^3-[2-(2,5-difluorophenyl)ethyl]-N^1-(2-{[2-(4-hydroxy-2-oxo-2,3-dihydro-1,3-benzothiazol-7-yl)ethyl]amino}ethyl)-β-alaninamide bis-trifluoroacetic acid salt], the IC50 in experiment [1] is 3160 nM; in experiment [2], 158 nM.
Regarding `O=C(CCNCCc1cccc(F)c1F)N(CCNCCc1ccc(O)c2[nH]c(=O)sc12)C1CCCCC1` [Example 81, N^1-Cyclohexyl-N^3-[2-(2,3-difluorophenyl)ethyl]-N^1-(2-{[2-(4-hydroxy-2-oxo-2,3-dihydro-1,3-benzothiazol-7-yl)ethyl]amino}ethyl)-β-alaninamide bis-trifluoroacetic acid salt], the IC50 in experiment [1] was 6310 nM; in experiment [2] it was 316 nM.
As to `O=C(CCNCCc1cccc(C(F)(F)F)c1)N(CCNCCc1ccc(O)c2[nH]c(=O)sc12)C1CCCCCC1` [Example 82, N^1-Cycloheptyl-N^1-(2-{[2-(4-hydroxy-2-oxo-2,3-dihydro-1,3-benzothiazol-7-yl)ethyl]amino}ethyl)-N^3-{2-[3-(trifluoromethyl)phenyl]ethyl}-β-alaninamide bis-trifluoroacetic acid salt], the figures for the IC50 in experiment [1] and in experiment [2] were 2510 nM and 50.1 nM, respectively.
With `O=C(CCNCCc1cc(F)ccc1F)N(CCNCCc1ccc(O)c2[nH]c(=O)sc12)C1CCCCCC1` [Example 83, N^1-Cycloheptyl-N^3-[2-(2,5-difluorophenyl)ethyl]-N^1-(2-{[2-(4-hydroxy-2-oxo-2,3-dihydro-1,3-benzothiazol-7-yl)ethyl]amino}ethyl)-β-alaninamide bis-trifluoroacetic acid salt], the IC50 in experiment [1] was 5010 nM; in experiment [2] it was 63.1 nM.
`O=C(CCNCCc1c(F)cccc1F)N(CCNCCc1ccc(O)c2[nH]c(=O)sc12)C1CCCCCC1` [Example 84, N^1-Cycloheptyl-N^3-[2-(2,6-difluorophenyl)ethyl]-N^1-(2-{[2-(4-hydroxy-2-oxo-2,3-dihydro-1,3-benzothiazol-7-yl)ethyl]amino}ethyl)-β-alaninamide bis-trifluoroacetic acid salt]: the IC50 in experiment [1] was 1000 nM; in experiment [2] it was 79.4 nM.

The record behind these values is patent publication US20100022491A1, “4-HYDROXY-2-OXO-2,3-DIHYDRO-1,3-BENZOTHIAZOL-7YL COMPOUNDS FOR MODULATION OF B2-ADRENORECEPTOR ACTIVITY” (ASTRAZENECA AB, priority 2006, published 2010).
